The EC50 is the midpoint of the concentration-response curve. Low values mean higher potency in that assay, high ones lower potency in that assay.

This note sets out measurements from ChEMBL document CHEMBL4196076, “An access to a library of novel triterpene derivatives with a promising pharmacological potential by Ugi and Passerini multicomponent reactions” (Eur J Med Chem, 2018).

One experiment relates to HT-29. The experiment can be described thus: Cytotoxicity against human HT-29 cells after 96 hrs by sulforhodamine-B assay. In kind it is functional, cell-based. Conditions: HT-29, 96 h. (In general: Sulforhodamine B stains cellular protein and so reports cell mass.)
A further experiment relates to A549. The experiment can be described thus: Cytotoxicity against human A549 cells after 96 hrs by sulforhodamine-B assay. Format: functional, cell-based. The following applies: A549, 96 h.
A further experiment has as its system NIH3T3. The experiment in a line: Cytotoxicity against mouse NIH/3T3 cells after 96 hrs by sulforhodamine-B assay. The following applies: NIH3T3, 96 h. Format: cell-based.
Another experiment has as its system MCF7. The experiment in a line: Cytotoxicity against human MCF7 cells after 96 hrs by sulforhodamine-B assay. The following applies: MCF7, 96 h. In kind it is functional, cell-based.
For another experiment, the system named is A2780. The experiment can be described thus: Cytotoxicity against human A2780 cells after 96 hrs by sulforhodamine-B assay. Format: functional, cell-based. The following applies: A2780, 96 h.
The subject of another experiment is FaDu. The experiment in a line: Cytotoxicity against human FADU cells after 96 hrs by sulforhodamine-B assay. Format: functional, cell-based.
The subject of another experiment is 518A2. The experiment in a line: Cytotoxicity against human 518A2 cells after 96 hrs by sulforhodamine-B assay. Conditions: 518A2, 96 h. Format: functional, cell-based.

On to `C=CCN(CC(=O)NCCCC)C(=O)[C@]12CCC(C)(C)C[C@H]1C1=CC[C@@H]3[C@@]4(C)CC[C@H](OC(C)=O)C(C)(C)[C@@H]4CC[C@@]3(C)[C@]1(C)CC2`, for which the EC50 in the experiment with HT-29 is more than 30 µM; with A549 it was more than 30 µM; with NIH3T3, more than 30 µM; with MCF7, more than 30 µM; in the experiment on A2780, 3.1 µM; in the experiment on FaDu, 16.1 µM. In the experiment with 518A2, this compound showed a half-maximal effective concentration (EC50) of 15 µM.
In the case of `CC(=O)O[C@H]1CC[C@]2(C)[C@H]3CC=C4[C@@H]5CC(C)(C)CC[C@]5(C(=O)N(CC(=O)NCc5ccccc5)Cc5ccoc5)CC[C@@]4(C)[C@]3(C)CC[C@H]2C1(C)C`, the concentration for a half-maximal effect (EC50) with HT-29 was more than 30 µM; in the experiment on A549 it was more than 30 µM; with NIH3T3 it was more than 30 µM; with MCF7 it was 15 µM; in the experiment on A2780, 6.3 µM; in the experiment on FaDu, 22.1 µM. In the experiment on 518A2, this compound returned an EC50 of 15.9 µM.
With `CC(C)N(CC(=O)NCc1ccccc1)C(=O)[C@]12CCC(C)(C)C[C@H]1C1=CC[C@@H]3[C@@]4(C)CC[C@H](O)C(C)(C)[C@@H]4CC[C@@]3(C)[C@]1(C)CC2`, the EC50 is more than 30 µM in the experiment on HT-29; more than 30 µM with NIH3T3; 19.4 µM with MCF7; 15.4 µM in the experiment with A2780; more than 30 µM in the experiment with FaDu; more than 30 µM in the experiment with 518A2.
For `C=CCN(CC(=O)NCc1ccccc1)C(=O)[C@]12CCC(C)(C)C[C@H]1C1=CC[C@@H]3[C@@]4(C)CC[C@H](OC(C)=O)C(C)(C)[C@@H]4CC[C@@]3(C)[C@]1(C)CC2`, the EC50 in the experiment with HT-29 was more than 30 µM; in the experiment on NIH3T3 it was more than 30 µM; with MCF7, 19.2 µM; in the experiment on A2780, 6 µM; with FaDu, 15.5 µM; with 518A2, 18.9 µM.
Take `CC(C)NC(=O)CN(Cc1ccoc1)C(=O)[C@]12CCC(C)(C)C[C@H]1C1=CC[C@@H]3[C@@]4(C)CC[C@H](O)C(C)(C)[C@@H]4CC[C@@]3(C)[C@]1(C)CC2`: the half-maximal effective concentration (EC50) in the experiment with HT-29 stood at 4.9 µM; with NIH3T3, 5.5 µM; in the experiment on MCF7, 4.9 µM; in the experiment on A2780, 5.9 µM; in the experiment on FaDu, 7.9 µM; with 518A2 it was 5.5 µM.
Regarding `CC(=O)O[C@H]1CC[C@]2(C)[C@H]3CC=C4[C@@H]5CC(C)(C)CC[C@]5(C(=O)N(CC(=O)NCc5ccccc5)Cc5ccccc5)CC[C@@]4(C)[C@]3(C)CC[C@H]2C1(C)C`, the EC50 in the experiment on HT-29 is more than 30 µM; with A549, more than 30 µM; in the experiment on NIH3T3 it was more than 30 µM; in the experiment with MCF7, more than 30 µM; in the experiment with A2780 it was 5.4 µM; in the experiment with FaDu it was 20.3 µM. Moreover, the concentration giving a half-maximal response (EC50) in the experiment with 518A2 stood at 13.5 µM.
In the case of `CN(CC(=O)NC(C)(C)C)C(=O)[C@]12CCC(C)(C)C[C@H]1C1=CC[C@@H]3[C@@]4(C)CC[C@H](O)C(C)(C)[C@@H]4CC[C@@]3(C)[C@]1(C)CC2`, the EC50 in the experiment on HT-29 stood at 13.8 µM; with A549 it was 8.6 µM; in the experiment on NIH3T3, 11.2 µM; with MCF7, 12.2 µM; in the experiment on A2780, 11 µM; with FaDu, 8.1 µM. Further, the EC50 in the experiment on 518A2 amounted to 7.9 µM.
On to `C=CCN(CC(=O)NCCCC)C(=O)[C@]12CCC(C)(C)C[C@H]1C1=CC[C@@H]3[C@@]4(C)CC[C@H](O)C(C)(C)[C@@H]4CC[C@@]3(C)[C@]1(C)CC2`, for which the EC50 with HT-29 was more than 30 µM; with NIH3T3, more than 30 µM; with MCF7, 21.3 µM; in the experiment with A2780 it was 19.3 µM; with FaDu, more than 30 µM; with 518A2 it was more than 30 µM.
On to `CC1(C)CC[C@]2(C(=O)N(CC(=O)NC(C)(C)C)Cc3cccc(F)c3)CC[C@]3(C)C(=CC[C@@H]4[C@@]5(C)CC[C@H](O)C(C)(C)[C@@H]5CC[C@]43C)[C@@H]2C1`, for which the half-maximal effective concentration (EC50) in the experiment with HT-29, in the experiment on NIH3T3, in the experiment with MCF7, in the experiment on A2780, in the experiment on FaDu and in the experiment on 518A2 was more than 30 µM throughout.
For `CC(=O)O[C@H]1CC[C@]2(C)[C@H]3CC=C4[C@@H]5CC(C)(C)CC[C@]5(C(=O)OCC(=O)NC(C)(C)C)CC[C@@]4(C)[C@]3(C)CC[C@H]2C1(C)C`, the 50% effective concentration (EC50) in the experiment with HT-29 was found to be 27.4 µM; with A549, 13.2 µM; with NIH3T3 it was 20 µM; in the experiment on MCF7 it was 12.9 µM; with A2780, 8.8 µM; with FaDu, 12.7 µM. Also, in the experiment with 518A2, it took 13.2 µM to reach a half-maximal effect (EC50).
Regarding `CCCCN(CC(=O)NCc1ccccc1)C(=O)[C@]12CCC(C)(C)C[C@H]1C1=CC[C@@H]3[C@@]4(C)CC[C@H](O)C(C)(C)[C@@H]4CC[C@@]3(C)[C@]1(C)CC2`, the concentration for a half-maximal effect (EC50) in the experiment on HT-29 was 15.6 µM; in the experiment on NIH3T3, more than 30 µM; in the experiment with MCF7, 24.6 µM; with A2780, more than 30 µM; with FaDu it was more than 30 µM; with 518A2, more than 30 µM.
As to `CCCCN(CC(=O)NCc1ccccc1)C(=O)[C@]12CCC(C)(C)C[C@H]1C1=CC[C@@H]3[C@@]4(C)CC[C@H](OC(C)=O)C(C)(C)[C@@H]4CC[C@@]3(C)[C@]1(C)CC2`, the EC50 was more than 30 µM with HT-29; more than 30 µM with A549; more than 30 µM in the experiment on NIH3T3; more than 30 µM with MCF7; 4.4 µM in the experiment with A2780; 19.8 µM with FaDu. In the experiment with 518A2, the EC50 was determined as 8.2 µM.
For the compound `C=CCN(CC(=O)NC(C)(C)C)C(=O)[C@]12CCC(C)(C)C[C@H]1C1=CC[C@@H]3[C@@]4(C)CC[C@H](O)C(C)(C)[C@@H]4CC[C@@]3(C)[C@]1(C)CC2`, the EC50 stood at 9.9 µM in the experiment with HT-29; 27.7 µM in the experiment on A549; 15.5 µM in the experiment on NIH3T3; 7 µM in the experiment on MCF7; 10.5 µM in the experiment on A2780; 26 µM in the experiment with FaDu. The concentration giving a half-maximal response (EC50) in the experiment with 518A2 was 24.4 µM.
With `CC1(C)CC[C@]2(C(=O)N(CC(=O)NCc3ccccc3)Cc3ccccc3)CC[C@]3(C)C(=CC[C@@H]4[C@@]5(C)CC[C@H](O)C(C)(C)[C@@H]5CC[C@]43C)[C@@H]2C1`, the EC50 in the experiment on HT-29, with NIH3T3, in the experiment with MCF7, in the experiment with A2780, in the experiment on FaDu and with 518A2 was more than 30 µM in each case.
Turning to `CCCCNC(=O)CN(Cc1ccoc1)C(=O)[C@]12CCC(C)(C)C[C@H]1C1=CC[C@@H]3[C@@]4(C)CC[C@H](O)C(C)(C)[C@@H]4CC[C@@]3(C)[C@]1(C)CC2`, the EC50 with HT-29 is 15.9 µM; in the experiment with NIH3T3 it was more than 30 µM; in the experiment on MCF7 it was 15.5 µM; in the experiment on A2780, 17.6 µM; in the experiment with FaDu, more than 30 µM; with 518A2, more than 30 µM.
As to `CC(=O)O[C@H]1CC[C@]2(C)[C@H]3CC=C4[C@@H]5CC(C)(C)CC[C@]5(C(=O)N(CC(=O)NCc5ccccc5)C(C)C)CC[C@@]4(C)[C@]3(C)CC[C@H]2C1(C)C`, the EC50 in the experiment with HT-29 came to 14.1 µM; in the experiment on A549, 14.9 µM; with NIH3T3, 10.2 µM; with MCF7 it was 9.7 µM; in the experiment with A2780, 8.3 µM; with FaDu it was 10.1 µM. Also, a half-maximal response in the experiment on 518A2 (EC50) required 20.9 µM.
As for `CCCCNC(=O)CN(Cc1ccccc1)C(=O)[C@]12CCC(C)(C)C[C@H]1C1=CC[C@@H]3[C@@]4(C)CC[C@H](O)C(C)(C)[C@@H]4CC[C@@]3(C)[C@]1(C)CC2`, the EC50 in the experiment with HT-29, in the experiment on NIH3T3, in the experiment with MCF7, in the experiment on A2780, in the experiment with FaDu and in the experiment with 518A2 was more than 30 µM in each case.
For `CC(=O)O[C@@H]1C[C@]2(C)[C@H]3CC=C4[C@@H]5CC(C)(C)CC[C@]5(C(=O)O)CC[C@@]4(C)[C@]3(C)CC[C@H]2C(C)(C)[C@H]1OC(C)=O`, the half-maximal effective concentration (EC50) turned out to be 25.5 µM with HT-29; 18.9 µM in the experiment with A549; 12.2 µM in the experiment on NIH3T3; 1.6 µM in the experiment with MCF7; 10.5 µM in the experiment with A2780; 21.3 µM with FaDu.
For `CC1(C)CC[C@]2(C(=O)N(CC(=O)NCc3ccccc3)Cc3ccoc3)CC[C@]3(C)C(=CC[C@@H]4[C@@]5(C)CC[C@H](O)C(C)(C)[C@@H]5CC[C@]43C)[C@@H]2C1`, the EC50 was more than 30 µM in the experiment with HT-29; more than 30 µM in the experiment on A549; more than 30 µM with NIH3T3; 12.6 µM in the experiment on MCF7; 13.2 µM in the experiment with A2780; more than 30 µM in the experiment on FaDu. Besides, the EC50 in the experiment on 518A2 is more than 30 µM.
As to `CC(=O)O[C@H]1CC[C@]2(C)[C@H]3CC=C4[C@@H]5CC(C)(C)CC[C@]5(C(=O)OCC(=O)NCc5ccccc5)CC[C@@]4(C)[C@]3(C)CC[C@H]2C1(C)C`, the EC50 amounted to 11.3 µM in the experiment with HT-29; 6.9 µM in the experiment on A549; 6.4 µM in the experiment with NIH3T3; 6.4 µM with MCF7; 6.8 µM in the experiment on A2780; 7.2 µM in the experiment on FaDu. The same compound showed a concentration for a half-maximal effect (EC50) in the experiment with 518A2 of 7.7 µM.
As to `CC1(C)CC[C@]2(C(=O)N(CC(=O)NC(C)(C)C)Cc3ccccc3)CC[C@]3(C)C(=CC[C@@H]4[C@@]5(C)CC[C@H](O)C(C)(C)[C@@H]5CC[C@]43C)[C@@H]2C1`, the half-maximal effective concentration (EC50) came to 11.5 µM with HT-29; 8.8 µM in the experiment on NIH3T3; 14.8 µM in the experiment on MCF7; 13.5 µM in the experiment with A2780; 17.8 µM in the experiment with FaDu; 11.4 µM in the experiment with 518A2.
On to `CC(=O)O[C@H]1CC[C@]2(C)[C@H]3CC=C4[C@@H]5CC(C)(C)CC[C@]5(C(=O)N(C)CC(=O)NC(C)(C)C)CC[C@@]4(C)[C@]3(C)CC[C@H]2C1(C)C`, for which the EC50 in the experiment on HT-29 was found to be 23.7 µM; in the experiment with NIH3T3 it was 9.9 µM; in the experiment with MCF7, 5.7 µM; in the experiment on A2780, 4.1 µM; in the experiment with FaDu, 6.7 µM; in the experiment on 518A2, 8.8 µM.
In the case of `CC1(C)CC[C@]2(C(=O)O)CC[C@]3(C)C(=CC[C@@H]4[C@@]5(C)C[C@@H](O)[C@H](O)C(C)(C)[C@@H]5CC[C@]43C)[C@@H]2C1` [MASLINIC ACID], the concentration giving a half-maximal response (EC50) stood at 37.2 µM in the experiment with MCF7 and 17 µM with FaDu.
